Measured values from paper PMC6391970, “Design, Synthesis and Characterization of Covalent KDM5 Inhibitors” (Angewandte Chemie (International Ed. in English), 2018).

What was measured:
KDM4A = molecular target: T1, KDM4A (Homo sapiens, UniProt O75164); experiment: KDM AlphaScreen selectivity panel, KDM4A; format: biochemical; conditions: for IC50: AlphaScreen after 120 min pre-incubation, read-out: KDM IC50 4A; for SI over KDM5B, 4A: KDM4A IC50/KDM5B IC50
T1 sequence (O75164 1-1064): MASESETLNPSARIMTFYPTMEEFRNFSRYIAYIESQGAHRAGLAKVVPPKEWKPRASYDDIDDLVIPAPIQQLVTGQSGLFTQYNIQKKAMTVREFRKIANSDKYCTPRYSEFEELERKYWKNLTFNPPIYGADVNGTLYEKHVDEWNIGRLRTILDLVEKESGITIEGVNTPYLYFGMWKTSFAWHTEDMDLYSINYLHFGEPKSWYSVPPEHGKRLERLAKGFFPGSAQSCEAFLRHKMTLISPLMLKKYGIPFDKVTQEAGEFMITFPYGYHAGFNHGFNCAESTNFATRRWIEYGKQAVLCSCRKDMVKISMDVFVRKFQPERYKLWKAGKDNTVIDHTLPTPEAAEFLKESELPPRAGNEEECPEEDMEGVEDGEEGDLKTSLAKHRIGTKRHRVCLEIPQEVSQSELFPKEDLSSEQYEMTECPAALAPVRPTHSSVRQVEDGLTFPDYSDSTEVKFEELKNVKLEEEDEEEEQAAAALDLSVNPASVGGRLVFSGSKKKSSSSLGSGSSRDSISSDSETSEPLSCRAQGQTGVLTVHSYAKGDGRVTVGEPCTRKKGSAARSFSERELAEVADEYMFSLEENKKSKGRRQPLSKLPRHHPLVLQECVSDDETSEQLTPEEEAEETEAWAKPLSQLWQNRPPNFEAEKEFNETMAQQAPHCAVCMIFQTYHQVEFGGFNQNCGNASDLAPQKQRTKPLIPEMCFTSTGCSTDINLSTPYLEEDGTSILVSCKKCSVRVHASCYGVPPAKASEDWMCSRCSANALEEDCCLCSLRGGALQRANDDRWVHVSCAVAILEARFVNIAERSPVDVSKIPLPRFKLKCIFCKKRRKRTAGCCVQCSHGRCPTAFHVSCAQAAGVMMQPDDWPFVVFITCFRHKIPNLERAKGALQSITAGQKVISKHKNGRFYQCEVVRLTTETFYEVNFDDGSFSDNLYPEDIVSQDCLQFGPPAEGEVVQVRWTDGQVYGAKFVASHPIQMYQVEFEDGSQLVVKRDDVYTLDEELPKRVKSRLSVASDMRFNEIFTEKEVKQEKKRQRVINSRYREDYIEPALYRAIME
Description: (§1) A panel of JmjC KDMs was tested by AlphaScreen to determine the selectivity of the compounds (Table S2). […]
(§2) KDM alpha screen selectivity
(§3) Inhibition of histone demethylases was assessed using the histone demethylase AlphaScreen assay (Amplified Luminescence Proximity Homogenous Assay) as previously reported.[4] The basis of this assay for lysine demethylases have been widely described.[5] In brief, the assay was performed in 384-well plate format using white proxiplates (PerkinElmer), and transfer of titrations of compounds (100 nl) was performed using an ECHO 550 acoustic dispenser […]
(§4) Tween- 20) containing the appropriate demethylase enzyme (see Supplementary table 1 for final concentrations) was transferred to each well of a 384-well proxiplate with a Multidrop™ Combi Reagent Dispenser, and the enzymes allowed to pre-incubate for 120 minutes with compound (final concentration of DMSO was 1%). After that time, the enzyme reaction was initiated by addition of 5 µl of a substrate mix consisting of Ketoglutarate (2-OG), Ferrous Ammonium Sulphate (FAS), L-Ascorbic Acid (LAA) and biotinylated peptide substrate (see Supporting table X for final assay concentrations) and the reaction incubated for the indicated time at room temperature. Reaction was stopped by the addition of 5 μl of assay buffer containing EDTA (7.5 mM) and NaCl (400 mM). Streptavidin Donor beads (0.08 mg/ml) and Protein-A conjugated acceptor beads (0.08 mg/ml) (AlphaScreen General IgG detection kit was from Perkin Elmer) were pre-incubated for 1 hour with an antibody to the product methyl mark (Supplementary Table 1) and the presence of biotin-H3-product was detected by addition of 5 µl of the pre-incubated AlphaScreen beads (final concentrations of 0.02 mg/ml with respect to acceptor and donor beads). Detection was allowed to proceed for 2 hour at room temperature and the assay plates read in a BMG Labtech Pherastar FS plate reader (excitation, 680 nm; emission, 570 […]
(§5) IC50(t) = Ki (1 + K ) . ( η . k .t − 1) (1) […]
(§6) Table S4. AlphaScreen assay conditions for the KDM selectivity panel

KDM4C = molecular target: T2, KDM4C (Homo sapiens, UniProt Q9H3R0); experiment: KDM AlphaScreen selectivity panel, KDM4C; format: biochemical; conditions: for IC50: AlphaScreen after 120 min pre-incubation, read-out: KDM IC50 4C; for SI over KDM5B, 4C: KDM4C IC50/KDM5B IC50
T2 sequence (Q9H3R0 1-1056): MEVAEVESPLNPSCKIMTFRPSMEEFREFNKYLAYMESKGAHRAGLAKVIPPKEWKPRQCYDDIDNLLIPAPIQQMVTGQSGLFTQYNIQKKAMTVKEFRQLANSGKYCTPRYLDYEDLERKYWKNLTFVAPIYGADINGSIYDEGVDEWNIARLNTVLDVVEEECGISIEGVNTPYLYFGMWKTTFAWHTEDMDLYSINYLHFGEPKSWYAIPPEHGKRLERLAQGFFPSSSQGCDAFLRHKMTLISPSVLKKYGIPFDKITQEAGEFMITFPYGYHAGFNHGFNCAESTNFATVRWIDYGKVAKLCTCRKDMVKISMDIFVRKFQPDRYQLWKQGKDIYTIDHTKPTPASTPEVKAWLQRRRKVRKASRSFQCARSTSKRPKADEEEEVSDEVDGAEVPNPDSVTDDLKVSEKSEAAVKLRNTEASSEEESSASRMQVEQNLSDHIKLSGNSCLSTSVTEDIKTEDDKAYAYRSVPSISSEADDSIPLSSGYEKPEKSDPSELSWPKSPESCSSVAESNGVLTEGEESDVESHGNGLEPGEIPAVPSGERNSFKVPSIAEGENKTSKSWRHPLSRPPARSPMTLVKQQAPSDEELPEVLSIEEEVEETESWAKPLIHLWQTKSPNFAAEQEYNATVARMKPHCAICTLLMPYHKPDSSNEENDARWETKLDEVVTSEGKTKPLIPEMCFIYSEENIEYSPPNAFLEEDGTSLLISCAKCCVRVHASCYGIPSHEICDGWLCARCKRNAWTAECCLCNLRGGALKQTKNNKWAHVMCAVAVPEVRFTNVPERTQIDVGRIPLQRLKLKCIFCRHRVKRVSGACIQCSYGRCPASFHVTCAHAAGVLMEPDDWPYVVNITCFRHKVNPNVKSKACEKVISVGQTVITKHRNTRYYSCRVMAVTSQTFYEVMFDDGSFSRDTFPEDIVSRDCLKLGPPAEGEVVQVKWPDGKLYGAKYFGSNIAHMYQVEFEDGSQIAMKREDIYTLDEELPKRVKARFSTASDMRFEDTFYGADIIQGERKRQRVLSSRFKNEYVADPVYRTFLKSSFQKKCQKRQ
Description: as §1, §2, §3, §4, §5, §6

| Structure (SMILES) | selectivity over KDM4A (KDM4A) | IC50 (KDM4A) | SI over KDM5B, 4A (KDM4A) | IC50 (KDM4C) | SI over KDM5B, 4C (KDM4C) |
| --- | --- | --- | --- | --- | --- |
| CC(C)c1c(-c2cnn(C3CCN(C(=O)CCl)CC3)c2)[nH]c2c(C#N)cnn2c1=O [Compound 11] | – | 4300 ± 100 nM | 479 | 1500 ± 100 nM | 171 |
| C=CC(=O)Nc1cccc(CN(C)CCc2cnn(-c3nccc4c(=O)[nH]cnc34)c2)c1 [Compound 4] | – | 1200 ± 100 nM | – | 1000 ± 300 nM | – |
| CN(CCc1cnn(-c2nccc3c(=O)[nH]cnc23)c1)Cc1cccc(NC(=O)CCl)c1 [Compound 5] | – | 400 ± 100 nM | 41 | 300 ± 100 nM | 31 |
| CN(C)C/C=C/C(=O)Nc1cccc(CN(C)CCc2cnn(-c3nccc4c(=O)[nH]cnc34)c2)c1 [Compound 6] | – | 2400 ± 100 nM | – | 2300 ± 100 nM | – |

Second part, the molecule after the results:

| selectivity over KDM4A (KDM4A) | IC50 (KDM4A) | SI over KDM5B, 4A (KDM4A) | IC50 (KDM4C) | SI over KDM5B, 4C (KDM4C) | Structure (SMILES) |
| --- | --- | --- | --- | --- | --- |
| > 500 fold | 12700 ± 600 nM | 742 | 4000 ± 100 nM | 234 | C=CC(=O)N1CCC(n2cc(-c3[nH]c4c(C#N)cnn4c(=O)c3C(C)C)cn2)CC1 [Compound 10] |
| – | 4600 ± 400 nM | 71 | 3200 ± 100 nM | 49 | C=CC(=O)NCCOc1ccc(-c2[nH]c3c(C#N)cnn3c(=O)c2C(C)C)cc1 [Compound 9] |
| > 500 fold | 4600 ± 100 nM | 653 | 1800 ± 100 nM | 253 | CC(C)c1c(-c2cnn(CCNC(=O)CCl)c2)[nH]c2c(C#N)cnn2c1=O [Compound 7] |
